Assay results reported in ChEMBL document CHEMBL1156023, “Grassystatins A-C from marine cyanobacteria, potent cathepsin E inhibitors that reduce antigen presentation” (J Med Chem, 2009).
pIC50: −log10 of the molar value. Square brackets hold non-standard residues; d marks the D form. Peptide text beside a SMILES is read from it. * marks the point of attachment. Sta = CC(C)C[C@H](N)[C@@H](O)CC(=O)O; NMe2Val = CC(C)[C@@H](C(=O)*)N(C)C; dNMeF = CN[C@H](Cc1ccccc1)C(=O)O; dHiv = CC(C)[C@@H](O)C(=O)O; Hiv = CC(C)[C@H](O)C(=O)O

Columns and labels:
Caspase-7 (Homo sapiens) = Caspase-7 (Homo sapiens) (UniProt P55210); test: Inhibition of caspase 7 assessed as residual activity at 10 uM after 10 to 15 mins by fluorescence assay relative to control
[1] = target: Vitamin K-dependent protein C (Homo sapiens, UniProt P04070); test: Inhibition of activated protein C after 10 to 15 mins by fluorescence assay in presence of 50% […]
Caspase-10 = Caspase-10 (Homo sapiens, UniProt Q92851); test: Inhibition of caspase 10 after 10 to 15 mins by fluorescence assay
Caspase-10, sequence (Q92851 220-415 limits assumed): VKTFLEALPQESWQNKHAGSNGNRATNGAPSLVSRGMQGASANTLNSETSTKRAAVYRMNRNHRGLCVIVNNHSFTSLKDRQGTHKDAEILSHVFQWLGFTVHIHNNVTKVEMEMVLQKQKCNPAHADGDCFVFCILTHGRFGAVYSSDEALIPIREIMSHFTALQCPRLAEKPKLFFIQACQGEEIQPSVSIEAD
Caspase-10, sequence (Q92851 416-521 limits assumed): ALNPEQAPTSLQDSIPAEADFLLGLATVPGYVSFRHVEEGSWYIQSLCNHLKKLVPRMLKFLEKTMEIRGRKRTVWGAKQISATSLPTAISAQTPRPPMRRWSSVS

[2] = target: T1, Matrix metalloproteinase-9 (Homo sapiens, UniProt P14780); test: Inhibition of MMP9 assessed as residual activity at 10 uM after 10 to 15 mins by fluorescence assay relative to control
T1 sequence (P14780 whole entry): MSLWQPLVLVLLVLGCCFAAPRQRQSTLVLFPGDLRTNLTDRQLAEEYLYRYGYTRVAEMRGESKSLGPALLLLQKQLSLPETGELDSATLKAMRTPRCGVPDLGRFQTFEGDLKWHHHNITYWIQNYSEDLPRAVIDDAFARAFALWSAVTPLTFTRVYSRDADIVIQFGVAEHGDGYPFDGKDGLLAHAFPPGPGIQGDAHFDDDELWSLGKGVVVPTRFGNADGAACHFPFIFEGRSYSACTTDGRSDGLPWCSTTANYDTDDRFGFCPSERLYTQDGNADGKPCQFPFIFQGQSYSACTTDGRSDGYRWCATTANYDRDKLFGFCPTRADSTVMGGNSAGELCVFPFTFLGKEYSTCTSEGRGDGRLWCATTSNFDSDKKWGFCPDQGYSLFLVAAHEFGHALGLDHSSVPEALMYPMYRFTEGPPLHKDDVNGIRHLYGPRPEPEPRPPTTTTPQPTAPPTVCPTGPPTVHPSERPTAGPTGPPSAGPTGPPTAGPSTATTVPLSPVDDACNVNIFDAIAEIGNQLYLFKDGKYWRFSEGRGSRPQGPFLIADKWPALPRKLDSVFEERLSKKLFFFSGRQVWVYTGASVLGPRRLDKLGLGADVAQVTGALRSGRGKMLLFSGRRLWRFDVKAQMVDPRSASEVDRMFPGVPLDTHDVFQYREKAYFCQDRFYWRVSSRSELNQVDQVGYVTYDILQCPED

[3] = target: Chymotrypsin-like elastase family member 1 (Sus scrofa) (UniProt P00772); test: Inhibition of porcine pancreatic elastase assessed as residual activity at 10 uM after 10 to 15 mins by fluorescence assay relative to control
[4] = target: 72 kDa type IV collagenase (Homo sapiens, UniProt P08253); test: Inhibition of MMP2 after 10 to 15 mins by fluorescence assay
[5] = target: Tryptase gamma (Homo sapiens) (UniProt Q9NRR2); test: Inhibition of human lung tryptase gamma1 assessed as residual activity at 10 uM after 10 to 15 mins by fluorescence assay relative to control
Tryptase gamma (Homo sapiens), sequence (Q9NRR2 38-321 limits assumed, other chains not shown): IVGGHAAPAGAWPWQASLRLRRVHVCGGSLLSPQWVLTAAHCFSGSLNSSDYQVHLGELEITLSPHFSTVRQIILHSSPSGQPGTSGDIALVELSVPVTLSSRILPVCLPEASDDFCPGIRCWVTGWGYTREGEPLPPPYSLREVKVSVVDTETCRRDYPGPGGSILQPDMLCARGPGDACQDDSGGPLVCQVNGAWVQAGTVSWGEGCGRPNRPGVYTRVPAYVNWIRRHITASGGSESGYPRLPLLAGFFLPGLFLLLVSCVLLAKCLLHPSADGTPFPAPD

[6] = target: T1, Matrix metalloproteinase-9; test: Inhibition of MMP9 catalytic domain after 10 to 15 mins by fluorescence assay
[7] = target: T2, Matrix metalloproteinase-14 (Homo sapiens, UniProt P50281); test: Inhibition of MMP14 assessed as residual activity at 10 uM after 10 to 15 mins by fluorescence assay relative to control
Renin = Renin (Homo sapiens, UniProt P00797); test: Inhibition of human renin after 10 to 15 mins by fluorescence assay
[8] = target: Disintegrin and metalloproteinase domain-containing protein 10 (Homo sapiens) (UniProt O14672); test: Inhibition of ADAM10 assessed as residual activity at 10 uM after 10 to 15 mins by fluorescence assay relative to control
[9] = target: Urokinase-type plasminogen activator (Homo sapiens) (UniProt P00749); test: Inhibition of urokinase assessed as residual activity at 10 uM after 10 to 15 mins by fluorescence assay relative to control
Caspase-8 (Homo sapiens) = Caspase-8 (Homo sapiens) (UniProt Q14790); test: Inhibition of caspase 8 assessed as residual activity at 10 uM after 10 to 15 mins by fluorescence assay relative to control
Caspase-8 (Homo sapiens), sequence (Q14790 217-374 limits assumed): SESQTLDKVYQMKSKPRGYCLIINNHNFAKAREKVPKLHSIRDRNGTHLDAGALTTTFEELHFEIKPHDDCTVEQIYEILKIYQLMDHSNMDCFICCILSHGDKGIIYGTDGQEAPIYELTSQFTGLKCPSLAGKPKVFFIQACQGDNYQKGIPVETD
Caspase-8 (Homo sapiens), sequence (Q14790 385-479 limits assumed): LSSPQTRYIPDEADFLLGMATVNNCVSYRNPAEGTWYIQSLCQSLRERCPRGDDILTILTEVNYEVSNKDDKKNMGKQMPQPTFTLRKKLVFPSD

[10] = target: Beta-secretase 1 (Homo sapiens) (UniProt P56817); test: Inhibition of BACE1 assessed as residual activity at 10 uM after 10 to 15 mins by fluorescence assay relative to control
[11] = target: Coagulation factor X (Homo sapiens) (UniProt P00742); test: Inhibition of factor 10a assessed as residual activity at 10 uM after 10 to 15 mins by fluorescence assay relative to control
Coagulation factor X (Homo sapiens), sequence (P00742 41-179 limits assumed): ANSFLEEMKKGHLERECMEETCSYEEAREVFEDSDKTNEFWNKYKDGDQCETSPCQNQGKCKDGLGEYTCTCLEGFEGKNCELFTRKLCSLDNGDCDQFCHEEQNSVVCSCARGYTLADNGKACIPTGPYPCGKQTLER
Coagulation factor X (Homo sapiens), sequence (P00742 235-488 limits assumed): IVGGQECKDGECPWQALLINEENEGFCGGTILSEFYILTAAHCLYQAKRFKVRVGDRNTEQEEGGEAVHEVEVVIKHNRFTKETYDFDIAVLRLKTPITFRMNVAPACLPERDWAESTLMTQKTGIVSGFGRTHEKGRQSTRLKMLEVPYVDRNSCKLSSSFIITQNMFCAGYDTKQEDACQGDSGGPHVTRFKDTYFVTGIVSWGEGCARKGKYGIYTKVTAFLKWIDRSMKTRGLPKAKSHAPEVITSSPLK

[12] = target: Macrophage metalloelastase (Homo sapiens, UniProt P39900); test: Inhibition of MMP12 catalytic domain after 10 to 15 mins by fluorescence assay
[13] = target: Caspase-14 (Homo sapiens) (UniProt P31944); test: Inhibition of caspase 14 assessed as residual activity at 10 uM after 10 to 15 mins by fluorescence assay relative to control
[14] = target: Serine protease 1 (Bos taurus) (UniProt P00760); test: Inhibition of bovine pancreatic trypsin assessed as residual activity at 10 uM after 10 to 15 mins by fluorescence assay relative to control
Serine protease 1 (Bos taurus), sequence (P00760 whole entry): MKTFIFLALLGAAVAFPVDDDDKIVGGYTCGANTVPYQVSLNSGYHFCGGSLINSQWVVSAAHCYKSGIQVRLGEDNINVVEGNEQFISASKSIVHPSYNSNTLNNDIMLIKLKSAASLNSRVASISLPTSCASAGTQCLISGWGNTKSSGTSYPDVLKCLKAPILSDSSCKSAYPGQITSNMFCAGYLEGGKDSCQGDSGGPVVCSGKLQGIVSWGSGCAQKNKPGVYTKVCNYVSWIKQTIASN

Papain (Carica papaya) = Papain (Carica papaya) (UniProt P00784); test: Inhibition of papaya papain assessed as residual activity at 10 uM after 10 to 15 mins by fluorescence assay relative to control
Papain (Carica papaya), sequence (P00784 whole entry): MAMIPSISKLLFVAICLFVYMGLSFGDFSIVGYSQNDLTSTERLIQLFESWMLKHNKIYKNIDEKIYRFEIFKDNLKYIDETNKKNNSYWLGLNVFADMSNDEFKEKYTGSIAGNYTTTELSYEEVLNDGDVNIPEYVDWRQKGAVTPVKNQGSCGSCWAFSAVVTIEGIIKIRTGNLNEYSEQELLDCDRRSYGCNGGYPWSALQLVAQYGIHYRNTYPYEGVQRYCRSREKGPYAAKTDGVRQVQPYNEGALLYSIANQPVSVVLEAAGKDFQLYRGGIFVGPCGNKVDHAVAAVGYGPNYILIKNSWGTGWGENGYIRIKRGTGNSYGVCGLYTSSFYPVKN

Caspase-6 = Caspase-6 (Homo sapiens, UniProt P55212); test: Inhibition of caspase 6 after 10 to 15 mins by fluorescence assay
Caspase-4 = Caspase-4 (Homo sapiens, UniProt P49662); test: Inhibition of caspase 4 after 10 to 15 mins by fluorescence assay
Caspase-3 (Homo sapiens) = Caspase-3 (Homo sapiens) (UniProt P42574); test: Inhibition of caspase 3 assessed as residual activity at 10 uM after 10 to 15 mins by fluorescence assay relative to control
Caspase-3 (Homo sapiens), sequence (P42574 29-175 limits assumed): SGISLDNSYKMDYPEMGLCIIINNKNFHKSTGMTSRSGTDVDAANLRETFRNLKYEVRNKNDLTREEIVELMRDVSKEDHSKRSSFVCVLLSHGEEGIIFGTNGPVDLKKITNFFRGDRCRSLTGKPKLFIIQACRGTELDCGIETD
Caspase-3 (Homo sapiens), sequence (P42574 176-277 limits assumed): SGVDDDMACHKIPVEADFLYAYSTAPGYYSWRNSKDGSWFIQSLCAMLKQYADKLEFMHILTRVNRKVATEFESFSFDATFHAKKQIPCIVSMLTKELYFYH

[15] = target: Cathepsin Z (Homo sapiens) (UniProt Q9UBR2); test: Inhibition of cathepsin Z assessed as residual activity at 10 uM after 10 to 15 mins by fluorescence assay relative to control
Stromelysin-2 [16] = target: T3, Stromelysin-2 (Homo sapiens, UniProt P09238); test: Inhibition of MMP10 catalytic domain after 10 to 15 mins by fluorescence assay
Target sequence in this assay (P09238 whole entry, the tested form may be a part): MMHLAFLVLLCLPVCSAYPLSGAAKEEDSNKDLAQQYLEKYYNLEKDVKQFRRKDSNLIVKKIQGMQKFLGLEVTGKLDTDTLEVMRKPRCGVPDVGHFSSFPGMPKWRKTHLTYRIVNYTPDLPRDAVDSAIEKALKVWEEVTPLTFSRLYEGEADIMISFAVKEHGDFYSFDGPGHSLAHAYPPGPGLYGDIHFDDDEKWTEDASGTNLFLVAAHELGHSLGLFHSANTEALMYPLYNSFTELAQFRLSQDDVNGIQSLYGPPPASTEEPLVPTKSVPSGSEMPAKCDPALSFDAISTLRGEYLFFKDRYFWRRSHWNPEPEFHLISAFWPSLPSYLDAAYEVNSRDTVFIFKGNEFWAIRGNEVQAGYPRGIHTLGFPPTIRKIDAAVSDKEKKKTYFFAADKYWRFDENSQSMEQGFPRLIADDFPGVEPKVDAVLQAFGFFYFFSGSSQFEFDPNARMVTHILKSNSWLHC

[17] = target: Dipeptidyl peptidase 4 (Homo sapiens) (UniProt P27487); test: Inhibition of DPP4 assessed as residual activity at 10 uM after 10 to 15 mins by fluorescence assay relative to control
Dipeptidyl peptidase 4 (Homo sapiens), sequence (P27487 whole entry, looked up, the tested form may be a part): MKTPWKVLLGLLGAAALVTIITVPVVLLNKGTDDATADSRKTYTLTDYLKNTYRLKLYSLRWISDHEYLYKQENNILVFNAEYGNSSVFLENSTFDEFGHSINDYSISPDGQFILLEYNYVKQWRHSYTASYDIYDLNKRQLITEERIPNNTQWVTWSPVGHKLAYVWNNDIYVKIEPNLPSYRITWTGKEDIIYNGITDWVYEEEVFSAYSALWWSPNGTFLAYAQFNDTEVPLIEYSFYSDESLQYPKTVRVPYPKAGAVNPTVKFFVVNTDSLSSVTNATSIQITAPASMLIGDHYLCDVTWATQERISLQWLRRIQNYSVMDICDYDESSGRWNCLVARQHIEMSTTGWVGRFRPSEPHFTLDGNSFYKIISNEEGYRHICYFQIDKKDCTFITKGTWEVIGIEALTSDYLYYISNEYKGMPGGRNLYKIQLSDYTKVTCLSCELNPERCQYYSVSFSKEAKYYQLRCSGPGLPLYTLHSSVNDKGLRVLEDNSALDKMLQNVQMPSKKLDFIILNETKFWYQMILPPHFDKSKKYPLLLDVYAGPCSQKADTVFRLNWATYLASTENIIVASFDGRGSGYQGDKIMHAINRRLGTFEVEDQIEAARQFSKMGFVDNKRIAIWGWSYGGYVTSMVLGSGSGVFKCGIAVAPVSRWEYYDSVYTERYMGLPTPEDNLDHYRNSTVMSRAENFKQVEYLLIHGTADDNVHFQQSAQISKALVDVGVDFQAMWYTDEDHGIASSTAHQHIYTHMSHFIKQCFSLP

[18] = target: T2, Matrix metalloproteinase-14; test: Inhibition of MMP14 catalytic domain after 10 to 15 mins by fluorescence assay
Stromelysin-2 [19] = target: T3, Stromelysin-2; test: Inhibition of MMP10 assessed as residual activity at 10 uM after 10 to 15 mins by fluorescence assay relative to control
Target sequence in this assay (P09238 99-476 limits assumed): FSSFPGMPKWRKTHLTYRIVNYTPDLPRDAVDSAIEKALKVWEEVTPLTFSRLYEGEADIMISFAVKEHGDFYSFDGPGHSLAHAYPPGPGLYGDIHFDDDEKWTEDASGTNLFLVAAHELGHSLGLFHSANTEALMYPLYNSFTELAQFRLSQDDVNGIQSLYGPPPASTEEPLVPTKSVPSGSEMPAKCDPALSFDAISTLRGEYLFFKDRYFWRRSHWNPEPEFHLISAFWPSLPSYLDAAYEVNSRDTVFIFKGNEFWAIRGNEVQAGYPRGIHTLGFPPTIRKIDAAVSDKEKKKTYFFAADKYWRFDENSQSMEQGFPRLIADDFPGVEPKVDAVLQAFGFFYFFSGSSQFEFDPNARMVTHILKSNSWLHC

[20] = target: Tryptase beta-1 (Homo sapiens) (UniProt Q15661); test: Inhibition of tryptase beta2 assessed as residual activity at 10 uM after 10 to 15 mins by fluorescence assay relative to control
[21] = target: Cathepsin E (Homo sapiens) (UniProt P14091); details: 5.08 to 100000 nM
[22] = target: Prothrombin (Homo sapiens) (UniProt P00734); test: Inhibition of thrombin alpha assessed as residual activity at 10 uM after 10 to 15 mins by fluorescence assay relative to control
Neutrophil collagenase = Neutrophil collagenase (Homo sapiens, UniProt P22894); test: Inhibition of MMP8 assessed as residual activity at 10 uM after 10 to 15 mins by fluorescence assay relative to control
Neutrophil collagenase, sequence (P22894 101-467 limits assumed): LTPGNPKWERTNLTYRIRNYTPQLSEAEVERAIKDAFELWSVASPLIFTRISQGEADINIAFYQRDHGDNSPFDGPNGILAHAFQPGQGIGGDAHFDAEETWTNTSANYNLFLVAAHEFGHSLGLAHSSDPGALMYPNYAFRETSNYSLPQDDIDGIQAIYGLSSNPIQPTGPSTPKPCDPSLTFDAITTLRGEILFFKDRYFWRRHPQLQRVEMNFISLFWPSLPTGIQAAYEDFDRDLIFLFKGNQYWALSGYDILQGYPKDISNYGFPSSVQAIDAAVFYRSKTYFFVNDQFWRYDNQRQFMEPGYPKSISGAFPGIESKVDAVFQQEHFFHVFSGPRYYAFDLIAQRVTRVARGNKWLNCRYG

Collagenase 3 = Collagenase 3 (Homo sapiens, UniProt P45452); test: Inhibition of MMP13 assessed as residual activity at 10 uM after 10 to 15 mins by fluorescence assay relative to control

Question: Which Activity (Caspase-7 (Homo sapiens)) does the source give for `COC(=O)[C@@H]1CCCN1C(=O)[C@@H](Cc1ccccc1)N(C)C(=O)[C@H](C)NC(=O)[C@@H](NC(=O)C[C@H](O)[C@H](CC(C)C)NC(=O)[C@H](CC(N)=O)NC(=O)[C@H](CC(C)C)NC(=O)[C@H](OC(=O)[C@@H](OC(=O)[C@H](C(C)C)N(C)C)C(C)C)C(C)C)[C@@H](C)O` [GRASSYSTATIN A] (NMe2Val-[Hiv][dHiv]LN[Sta]TA[dNMeF]P-OMe) here?
Answer: 62%

Question: And the pIC50 [1]?
Answer: 4.30

Question: And the pIC50 (Caspase-10)?
Answer: 5.30

Question: What about the Activity [2] of the same molecule?
Answer: 81%

Question: What about the Activity [3] of the same molecule?
Answer: 66%

Question: What about the pIC50 [4] of the same molecule?
Answer: 5.30

Question: What about the Activity [5] of the same molecule?
Answer: 80%

Question: What about the pIC50 [6] of the same molecule?
Answer: 5.30

Question: What about the Activity [7] of the same molecule?
Answer: 76%

Question: What about the pIC50 (Renin) of the same molecule?
Answer: 4.30

Question: What about the Activity [8] of the same molecule?
Answer: 0%

Question: What about the Activity [9] of the same molecule?
Answer: 79%

Question: What about the Activity (Caspase-8 (Homo sapiens)) of the same molecule?
Answer: 82%

Question: And the Activity [10]?
Answer: 100%

Question: And the Activity [11]?
Answer: 84%

Question: And the pIC50 [12]?
Answer: 5.30

Question: What about the Activity [13] of the same molecule?
Answer: 96%

Question: What about the Activity [14] of the same molecule?
Answer: 77%

Question: What about the Activity (Papain (Carica papaya)) of the same molecule?
Answer: 101%

Question: And the pIC50 (Caspase-6)?
Answer: 5.30

Question: And the pIC50 (Caspase-4)?
Answer: 5.30

Question: And the Activity (Caspase-3 (Homo sapiens))?
Answer: 63%

Question: And the Activity [15]?
Answer: 94%

Question: And the pIC50 (Stromelysin-2 [16])?
Answer: 5.30

Question: What about the Activity [17] of the same molecule?
Answer: 71%

Question: What about the pIC50 [18] of the same molecule?
Answer: 5.30

Question: And the Activity (Stromelysin-2 [19])?
Answer: 76%

Question: And the Activity [20]?
Answer: 74%

Question: And the inhibition [21]?
Answer: tde

Question: And the Activity [22]?
Answer: 86%

Question: And the Activity (Neutrophil collagenase)?
Answer: 70%

Question: What about the Activity (Collagenase 3) of the same molecule?
Answer: 75%
